Reference: patent US6437184B1, “Oxime compounds, their use, and intermediates for their production” (Sumitomo Chemical Company, Limited, priority 1997, dated 2002)

How the values were obtained:
Tetranychus urticae = assay: Acaricidal test against Tetranychus urticae; type: in vivo; details: 500 ppm water dilution, 15 ml sprayed over brush bean with female adults set free 6 days before; after 8 days
Experimental: About twenty female adults of Tetranychus urticae were set free on brush bean (Phaseolus vulgaris) in the primary leaf stage, which had been potted in a plastic cup for 7 days after the seeding. After 6 days, a 200-fold water dilution (500 ppm) of a test compound formulation obtained according to Formulation Example 1 or 2 was sprayed at a volume of 15 ml over the plant. After 8 days, each compound was evaluated for acaricidal activity on the following criteria.
−: almost no damage and completely no surviving mites
±: slight damage and some few surviving mites
+: rather smaller damage and a rather fewer surviving mites than non-treatment case
++: same as non-treatment case

Heliothis virescens = assay: Insecticidal test against Heliothis virescens; type: in vivo; details: 168 h, 100 ppm water dilution, 0.2 ml on surface of artificial diet, second-instar larvae, after 7 days
Experimental: A water dilution (100 ppm) of a test compound formulation obtained according to Formulation Example 1 was added dropwise at a volume of 0.2 ml and uniformly spread over the surface of an artificial diet having a weight of 3 g, which had been prepared in a 30 ml plastic cup. After air drying, one second-instar larva of Heliothis virescens was set free in each cup. Ten larvae were used for each treatment. After 7 days, the mortality of the larvae was determined.

Helicoverpa armigera = assay: Insecticidal test against Helicoverpa armigera; type: in vivo; details: 120 h, 100 ppm water dilution, cotton leaf fragment immersed 10 seconds, third-instar larvae, after 5 days
Experimental: A cotton leaf fragment (diameter, 5 cm) was immersed for 10 seconds Lin a water dilution (100 ppm) of a test compound formulation obtained according to Formulation Example 1. This fragment was taken out from the dilution, air dried, and placed in a polyethylene cup having a diameter of 5.5 cm. One third-instar larva of Helicoverpa armigera was set free in each cup. Ten larvae were used for each treatment. After 5 days, the mortality of the larvae was determined.

Cydia pomonella = assay: Insecticidal test against Cydia pomonella; type: in vivo; details: 168 h, 100 ppm water dilution, 0.2 ml on surface of artificial diet, eggs just before hatching, after 7 days
Experimental: A water dilution (100 ppm) of a test compound formulation obtained according to Formulation Example 1 was added dropwise at a volume of 0.2 ml and spread over the surface of an artificial diet having a weight of 3 g, which had been prepared in a 30 ml polyethylene cup. After air drying, placed in the cup was a piece of wax paper (about 2.5 cm square) having about 20 eggs which had been laid by Cydia pomonella and were just before hatching. Four pieces of such wax paper were used for each treatment. After 7 days, the mortality of the larvae was determined.

Plutella xylostella = assay: Insecticidal test against Plutella xylostella; type: in vivo; details: 96 h, 50 ppm water dilution sprayed over potted cabbages, 25 ml per pot, third-instar larvae, after 4 days, read-out: mortality
Experimental: To a water dilution (50 ppm) of a test compound formulation obtained according to Formulation Example 1 was added a spreading agent (New RINOU available from Nihon Noyaku K.K.) at a dilution ratio of 3000-fold. The dilution was sprayed over potted cabbages at the four to five leaf stage at a volume of 25 ml per pot. After the treated plants were air dried, ten third-instar larvae of Plutella xylostella were set free on each pot. After 4 days, the mortality was determined.

For `ClC(Cl)=CCON=CCOc1ccc(COc2c(Cl)cc(OCC=C(Cl)Cl)cc2Cl)cc1` [(360), 2-(4-(2,6-dichloro-4-(3,3-dichloro-2-propenyloxy)phenoxymethyl)phenoxy)acetaldehyde O-(3,3-dichloro-2-propenyl)oxime], the melting point was 87.9 °C.
In the case of `CC(CC(C)(C)C)=NOCCCCCOc1c(Cl)cc(OCC=C(Cl)Cl)cc1Cl` [(592), 4,4-dimethyl-2-pentanone O-(5-(2,6-dichloro-4-(3,3-dichloro-2-propenyloxy)phenoxy)pentyl)oxime], the acaricidal activity (Tetranychus urticae) is reported as ““−” or “±””.
For `O=[N+]([O-])c1ccc(ON=CCCCCOc2c(Cl)cc(OCC=C(Cl)Cl)cc2Cl)c([N+](=O)[O-])c1`, the melting point was 65.2 °C.
`CCc1cc(OCC=C(Cl)Cl)cc(CC)c1OCCCCOCC=NOC(C)(C)C` [(11), 4-(2,6-diethyl-4-(3,3-dichloro-2-propenyloxy)phenoxy)butyloxyacetaldehyde O-tert-butyloxime] gave a mortality at 100 µg/mL (Heliothis virescens) of at least 80%, a mortality at 100 µg/mL (Helicoverpa armigera) of at least 80% and a mortality at 100 µg/mL (Cydia pomonella) of at least 80%.
In the case of `CC(=NOCCCCCCOc1c(Cl)cc(OCC=C(Cl)Cl)cc1Cl)C(C)C` [(583), 3-methyl-2-butanone O-(6-(2,6-dichloro-4-(3,3-dichloro-2-propenyloxy)phenoxy)hexyl)oxime], the acaricidal activity (Tetranychus urticae) is reported as ““−” or “±””.
`CC(=NOCCCCCOc1c(Cl)cc(OCC=C(Cl)Cl)cc1Cl)c1ccc(Cl)nc1` [(569), 6-chloro-3-pyridyl methyl ketone O-(5-(2,6-dichloro-4-(3,3-dichloro-2-propenyloxy)phenoxy)pentyl)oxime] gave a melting point of 67.7 °C.
`ClC(Cl)=CCON=Cc1ccc(OCCCOc2c(Cl)cc(OCC=C(Cl)Cl)cc2Cl)cc1` [(283), 4-(3-(2,6-dichloro-4-(3,3-dichloro-2-propenyloxy)phenoxy)propyloxy)benzaldehyde O-(3,3-dichloro-2-propenyl)oxime] gave a mortality at 50 µg/mL (Plutella xylostella) of at least 80% and a mortality at 100 µg/mL (Helicoverpa armigera) of at least 80%.
For `ClC(Cl)=CCON=Cc1ccc(COc2c(Cl)cc(OCC=C(Cl)Cl)cc2Cl)cc1` [(279), 4-(2,6-dichloro-4-(3,3-dichloro-2-propenyloxy)phenoxymethyl)benzaldehyde O-(3,3-dichloro-2-propenyl)oxime], the mortality at 50 µg/mL (Plutella xylostella) was at least 80%, the mortality at 100 µg/mL (Helicoverpa armigera) was at least 80% and the mortality at 100 µg/mL (Cydia pomonella) was at least 80%.
In the case of `CC(CC(C)(C)C)=NOCCCCCCOc1c(Cl)cc(OCC=C(Cl)Cl)cc1Cl` [(593), 4,4-dimethyl-2-pentanone O-(6-(2,6-dichloro-4-(3,3-dichloro-2-propenyloxy)phenoxy)hexyl)oxime], the acaricidal activity (Tetranychus urticae) is reported as ““−” or “±””.
`CON=Cc1ccc(COc2c(Cl)cc(OCC=C(Cl)Cl)cc2Cl)cc1` [(311), 4-(2,6-dichloro-4-(3,3-dichloro-2-propenyloxy)phenoxymethyl)benzaldehyde O-methyloxime] gave a melting point of 95.9 °C.
Work on `CCON=C(C)COc1c(Cl)cc(OCC=C(Cl)Cl)cc1Cl` [(30), (2,6-dichloro-4-(3,3-dichloro-2-propenyloxy)phenoxy)acetone O-ethyloxime] yielded a melting point of 65.4 °C.
Work on `CC(=NOC(C)(C)C)c1ccc(OCCCCOc2c(Cl)cc(OCC=C(Cl)Cl)cc2Cl)cc1` [(298), 4′-(4-(2,6-dichloro-4-(3,3-dichloro-2-propenyloxy)phenoxy)butyloxy)acetophenone O-tert-butyloxime] yielded a melting point of 56.4 °C.
For `ClC(Cl)=CCOc1cc(Cl)c(OCCCON=Cc2ccccc2)c(Cl)c1` [(523), benzaldehyde O-(3-(2,6-dichloro-4-(3,3-dichloro-2-propenyloxy)phenoxy)propyl)oxime], the mortality at 50 µg/mL (Plutella xylostella) was at least 80% and the mortality at 100 µg/mL (Heliothis virescens) was at least 80%.
`ON=CCOCCCCOc1c(Cl)cc(OCC=C(Cl)Cl)cc1Cl` [(148), 4-(2,6-dichloro-4-(3,3-dichloro-2-propenyloxy)phenoxy)butyloxyacetaldehyde oxime] gave a melting point of 62.8 °C.
With `ClC(Cl)=CCOc1cc(Cl)c(OCCCCCOCC=NOCC(Cl)(Cl)Cl)c(Cl)c1` [(160), 5-(2,6-dichloro-4-(3,3-dichloro-2-propenyloxy)phenoxy)pentyloxyacetaldehyde O-(2,2,2-trichloroethyl)oxime] the mortality at 100 µg/mL (Heliothis virescens) was at least 80%.
`ClC(Cl)=CCOc1cc(Cl)c(OCCCCOCC=NOCc2ccccc2)c(Cl)c1` [(5), 4-(2,6-dichloro-4-(3,3-dichloro-2-propenyloxy)phenoxy)butyloxyacetaldehyde O-benzyloxime] gave a mortality at 100 µg/mL (Heliothis virescens) of at least 80%.
With `CCON=C(C)c1ccc(OCCCOc2c(Cl)cc(OCC=C(Cl)Cl)cc2Cl)cc1` [(293), 4′-(3-(2,6-dichloro-4-(3,3-dichloro-2-propenyloxy)phenoxy)propyloxy)acetophenone O-ethyloxime] the mortality at 100 µg/mL (Helicoverpa armigera) was at least 80% and the mortality at 100 µg/mL (Cydia pomonella) was at least 80%.
`CCON=C(C)c1ccc(OCCCCCOc2c(Cl)cc(OCC=C(Cl)Cl)cc2Cl)cc1` [(321), 4′-(5-(2,6-dichloro-4-(3,3-dichloro-2-propenyloxy)phenoxy)-pentyloxy)acetophenone O-ethyloxime] showed a melting point of 56.1 °C.
Molecule `N#Cc1ccc(C=NOCCCCOc2c(Cl)cc(OCC=C(Cl)Cl)cc2Cl)cc1` [(691), 4-cyanobenzaldehyde O-(4-(2,6-dichloro-4-(3,3-dichloro-2-propenyloxy)phenoxy)butyl)oxime] has a melting point of 71.2 °C.
Molecule `CCON=Cc1ccc(COc2c(Cl)cc(OCC=C(Cl)Cl)cc2Cl)cc1` [(326), 4-(2,6-dichloro-4-(3,3-dichloro-2-propenyloxy)phenoxymethyl)benzaldehyde O-ethyloxime] has a melting point of 84.8 °C.
For `ClC(Cl)=CCON=Cc1ccc(COc2c(Cl)cc(OCC=C(Br)Br)cc2Cl)cc1` [(280), 4-(2,6-dichloro-4-(3,3-dibromo-2-propenyloxy)phenoxymethyl)benzaldehyde O-(3,3-dichloro-2-propenyl)oxime], the melting point was 88.2 °C.
In the case of `ClC(Cl)=CCOc1cc(Cl)c(OCc2ccc(C=NOCc3ccccc3)cc2)c(Cl)c1` [(313), 4-(2,6-dichloro-4-(3,3-dichloro-2-propenyloxy)phenoxymethyl)benzaldehyde O-benzyloxime], the melting point is reported as 70.3 °C.
`ClC(Cl)=CCON=CCCCCCOc1c(Cl)cc(OCC=C(Cl)Cl)cc1Cl` [(76), 6-(2,6-dichloro-4-(3,3-dichloro-2-propenyloxy)phenoxy)hexanal O-(3,3-dichloro-2-propenyl)oxime] gave a mortality at 50 µg/mL (Plutella xylostella) of at least 80%, a mortality at 100 µg/mL (Heliothis virescens) of at least 80% and a mortality at 100 µg/mL (Cydia pomonella) of at least 80%.
Work on `ClC(Cl)=CCOc1cc(Cl)c(OCCOc2ccc(C=NOCC=C(Br)Br)cc2)c(Cl)c1` [(282), 4-(2-(2,6-dichloro-4-(3,3-dichloro-2-propenyloxy)phenoxy)-ethoxy)benzaldehyde O-(3,3-dibromo-2-propenyl)oxime] yielded a melting point of 90.8 °C.
Work on `CCCON=C(C)c1ccc(COc2c(Cl)cc(OCC=C(Cl)Cl)cc2Cl)cc1` [(346), 4′-(2,6-dichloro-4-(3,3-dichloro-2-propenyloxy)phenoxymethyl)acetophenone O-propyloxime] yielded a mortality at 100 µg/mL (Heliothis virescens) of at least 80%.
Work on `CC(=NOCCCCCOc1c(Cl)cc(OCC=C(Cl)Cl)cc1Cl)C(C)(C)C` [(559), 3,3-dimethyl-2-butanone O-(5-(2,6-dichloro-4-(3,3-dichloro-2-propenyloxy)phenoxy)pentyl)oxime] yielded a mortality at 100 µg/mL (Heliothis virescens) of at least 80%.
`ON=Cc1ccc(OCCCCCOc2c(Cl)cc(OCC=C(Cl)Cl)cc2Cl)cc1` [(333), 4-(5-(2,6-dichloro-4-(3,3-dichloro-2-propenyloxy)phenoxy)pentyloxy)benzaldehyde oxime] gave a melting point of 90.1 °C.
For `ClC(Cl)=CCOc1cc(Cl)c(OCCCCOCC=NOCC=C(Br)Br)c(Cl)c1` [(3), 4-(2,6-dichloro-4-(3,3-dichloro-2-propenyloxy)phenoxy)butyloxyacetaldehyde O-(3,3-dibromo-2-propenyl)oxime], the mortality at 100 µg/mL (Heliothis virescens) was at least 80%.
For `CC(=NO)c1ccc(OCCOc2c(Cl)cc(OCC=C(Cl)Cl)cc2Cl)cc1` [(337), 4′-(2-(2,6-dichloro-4-(3,3-dichloro-2-propenyloxy)phenoxy)-ethoxy)acetophenone oxime], the melting point was 121 °C.
